Consider six compounds from US20220324835A1 (Nurix Therapeutics, Inc., priority 2018, published 2022).

The structures appear in SMILES notation. Where two headings read alike, the source gives them in different places.

Common to all, as to type: cell-based
The subject of one assay is primary human NK cells. Kind of assay: NK cell activation assessed by cytokine secretion (coculture with K562 NucRed target cells). As to conditions: for fold induction at 0.625 µM: 0.625 μM compound; for fold induction at 2.5 µM: 2.5 μM compound. The method, then: Peripheral blood mononuclear cells (PBMC) were obtained either: 1) by using Ficoll-Paque™ (GE Healthcare) for separation of peripheral blood hematopoietic cells from buffy coats of healthy human donors; or 2) directly from LeukoPak donations. […] The cells were cultured overnight with IL-2 (60 ng/mL) at 37° C. 5% CO2. Cbl-b inhibitors were added 1 hour prior to stimulation and incubated at 37° C. 5% CO2 at a specific concentration (e.g., 10 μM, 1 μM, or 0.1 μM) with a final DMSO concentration of <0.1%. NK cells were co-cultured with target cells that were engineered to have a red nucleus (K562 NucRed) measurable by flow cytometry. […] The cells were mixed at the indicated ratios (e.g., 5:1, 1:1, or 1:5) of NK (effector cells) to K562 NucRed (target cells) for 6 hours. Cell free supernatants were collected and analyzed for cytokine secretion (e.g. TNFα, IFNγ, or MIP1β) by ELISA or Luminex multiplex kits following the manufacturer's protocol. IFNγ secretion was assessed using an R&D Systems ELISA kit (Catalog #DY285), TNFα secretion was assessed using an R&D Systems ELISA kit (Catalog #DY210), and MIP1β secretion was assessed using an R&D Systems ELISA kit (Catalog #DY271).
Readouts were reported as fold change over baseline. Baseline for this study was the measurement obtained from primary human NK effector cells cocultured with K562 NucRed target cells in the absence of a Cbl-b inhibitor. For NK cells cocultured with K562 NucRed cells, changes greater than 2.0-fold over baseline for cytokine secretion were considered a positive response (Table 10a and 10b).

In assay [1] the test system is human T-cells with allogenic immature dendritic cells. Kind of assay: Allogenic mixed lymphocyte reaction (MLR), T-cell proliferation. The settings on record: 120 h, 5 days, baseline T-cells without Cbl-b inhibitor, read-out: Proliferation, fold change over baseline. The method, then: Cbl-b inhibitor effects on primary human T-cells were also evaluated in the context of an allogenic mixed lymphocyte reaction (MLR). Allogenic immature dendritic cells were generated under the following conditions. Peripheral blood mononuclear cells (PBMC) were obtained either: 1) by using Ficoll-Paque™ (GE Healthcare) for separation of peripheral blood hematopoietic cells from huffy coats of healthy human donors; or 2) directly from LeukoPak donations. […] Monocytes were cultured with 30 ng/mL of recombinant human GM-CSF and 20 ng/mL of recombinant human IL-4 for seven days to generate immature dendritic cells. Monocytes and T-cells were either isolated fresh from peripheral blood or thawed from frozen stocks. Human T-cells were isolated, labeled with CFSE and incubated with inhibitors as described above. […] Proliferation of the T-cells was evaluated by flow cytometry.
Readouts for the allogenic mixed lymphocyte reaction were reported as fold change over baseline. Baseline for this study was the measurement obtained from total human T-cells stimulated with allogenic immature dendritic cells, wherein the T-cells were not incubated with a Cbl-b inhibitor (Table 5). Increases in proliferation greater than 2-fold over baseline were considered a positive response (Table 5).

A further assay has as its system primary human B cells. Kind of assay: B cell activation assay (CD69 on anti-IgM stimulated B cells). As to conditions: AUC of dose response curve (10 μM to 1 nM) of CD69 MFI normalized to DMSO control. How it is done: Peripheral blood mononuclear cells (PBMC) were obtained either: 1) by using Ficoll-Paque™ (GE Healthcare) for separation of peripheral blood hematopoietic cells from buffy coats of healthy human donors; or 2) directly from LeukoPak donations. Human primary B cells were isolated from the PBMCs utilizing negative selection with commercial kits following the manufacturer's protocol (StemCells Catalog #17954) to yield >95% CD20+ cells assessed by flow cytometry. Primary human B cells were plated at 0.7-1×10^5 per well in a 96-well plate with Cbl-b inhibitors over a dose ranging from 10 μM to 1 nM and incubated at 37° C. 5% CO2, with a final DMSO concentration of <0.5%. Cells were stimulated with anti-IgM for 20 hours at 37° C. 5% CO2. Surface activation markers on mature CD20^+ IgD^+ B cells were monitored by FACS using an anti-CD69 antibody (BD Biosciences).
Cbl-b inhibitors were tested to determine their ability to induce or enhance surface expression of cell surface markers on B cells (e.g., CD69), which is indicative of B cell activation.
Readouts were reported as area under curve (AUC) of the dose response curve of CD69 mean fluorescence intensity (MFI) normalized to the DMSO control. Baseline for this study was the measurement obtained from primary human B cells treated with DMSO in the presence of 2.5 μg/mL of anti-IgM-F(ab′)2. […] Compounds were ranked into bins according to their readouts as follows: A indicates ≤0.5, B indicates 0.5-1.00, C indicates 1.01-1.50, and D indicates ≥1.51.

[2] abbreviates: K562, NK cells cocultured with K562 NucRed, 1:1 E/T, read-out: IFNγ secretion, fold change over baseline.
Setting [3] is: K562, NK cells cocultured with K562 NucRed, 1:1 E/T, read-out: TNFα secretion, fold change over baseline.
Setting [4] is: K562, NK cells cocultured with K562 NucRed, 1:1 E/T, 10 μM compound, read-out: IFNγ secretion, fold change over baseline.
Setting [5] is: K562, NK cells cocultured with K562 NucRed, 1:1 E/T, 10 μM compound, read-out: TNFα secretion, fold change over baseline.
Where [6] appears, read: K562, 1:1 E/T, read-out: IFNγ secretion.
Where [7] appears, read: K562, 1:1 E/T, read-out: MIP1β secretion.
[8] abbreviates: K562, 1:1 E/T, read-out: TNFα secretion.
The mark [9] stands for this setting: K562, 1:1 E/T, 10 μM, read-out: IFNγ secretion.
The mark [10] stands for this setting: K562, 1:1 E/T, 10 μM, read-out: MIP1β secretion.
[11] abbreviates: K562, 1:1 E/T, 10 μM, read-out: TNFα secretion.
[12] abbreviates: K562, 5:1 E/T, read-out: IFNγ secretion.
Setting [13] is: K562, 5:1 E/T, read-out: MIP1β secretion.
Setting [14] is: K562, 5:1 E/T, read-out: TNFα secretion.
Setting [15] is: K562, 5:1 E/T, 10 μM, read-out: IFNγ secretion.
Where [16] appears, read: K562, 5:1 E/T, 10 μM, read-out: MIP1β secretion.
Where [17] appears, read: K562, 5:1 E/T, 10 μM, read-out: TNFα secretion.

Consider `C[C@H](Cc1nncn1C)c1cccc(NC(=O)c2cccc(C(F)(F)F)n2)c1` [Compound 183a, (R)-N-(3-(1-(4-methyl-4H-1,2,4-triazol-3-yl)propan-2-yl)phenyl)-6-(trifluoromethyl)picolinamide], for which the fold induction at 0.625 µM with primary human NK cells (setting [2]) lay within 2.01 to 5; in the assay on primary human NK cells (setting [3]), 1.01 to 2. Besides, the fold induction at 2.5 µM in the assay on primary human NK cells (setting [2]) and with primary human NK cells (setting [3]) was 2.01 to 5 throughout. The fold induction at 10 µM in the assay on primary human NK cells (setting [4]) was 2.01 to 5; with primary human NK cells (setting [5]), 2.01 to 5; in assay [1] it was below 2. The fold induction at 3 µM in assay [1] was below 2. The “CD69 MFI AUC” value with primary human B cells is recorded as “C (C indicates 1.01-1.50)”.

With `C[C@H](Cc1nncn1C)c1cccc(NC(=O)c2cc(C3CC3)cc(C(F)(F)F)n2)c1` [Compound 191, (R)-4-cyclopropyl-N-(3-(1-(4-methyl-4H-1,2,4-triazol-3-yl)propan-2-yl)phenyl)-6-(trifluoromethyl)picolinamide], the fold induction at 1 µM is 2.01 to 5 in the assay on primary human NK cells (setting [6]); 1.01 to 2 in the assay with primary human NK cells (setting [7]); 2.01 to 5 in the assay with primary human NK cells (setting [8]); 2.01 to 5 in the assay with primary human NK cells (setting [12]); 1.01 to 2 in the assay with primary human NK cells (setting [13]); 2.01 to 5 with primary human NK cells (setting [14]). In addition, the fold induction at 10 µM in the assay on primary human NK cells (setting [9]) was 2.01 to 5; in the assay with primary human NK cells (setting [10]) it was 1.01 to 2; in the assay with primary human NK cells (setting [11]), 1.01 to 2; with primary human NK cells (setting [15]), above 5; with primary human NK cells (setting [16]), 1.01 to 2; with primary human NK cells (setting [17]), 2.01 to 5.

For the compound `Cc1cc(C(=O)Nc2cccc([C@H](C)Cc3nncn3C)c2)nc(C2CC2)n1` [Compound 195, (R)-2-cyclopropyl-6-methyl-N-(3-(1-(4-methyl-4H-1,2,4-triazol-3-yl)propan-2-yl)phenyl)pyrimidine-4-carboxamide], the fold induction at 1 µM with primary human NK cells (setting [6]) fell in the range of 2.01 to 5; with primary human NK cells (setting [7]), 1.01 to 2; in the assay on primary human NK cells (setting [8]), 2.01 to 5; in the assay on primary human NK cells (setting [12]), 2.01 to 5; in the assay on primary human NK cells (setting [13]) it was 2.01 to 5; in the assay on primary human NK cells (setting [14]) it was 2.01 to 5. Further, the fold induction at 10 µM was 2.01 to 5 in the assay on primary human NK cells (setting [9]); 2.01 to 5 with primary human NK cells (setting [10]); 2.01 to 5 in the assay with primary human NK cells (setting [11]); above 5 with primary human NK cells (setting [15]); 2.01 to 5 with primary human NK cells (setting [16]); above 5 with primary human NK cells (setting [17]). In addition, the results for the fold induction at 10 µM (in the assay on primary human NK cells (setting [4]); with primary human NK cells (setting [5]); in assay [1]) were above 5, 2.01 to 5 and 2.01 to 3, respectively. Moreover, the fold induction at 0.625 µM lay within 2.01 to 5 in the assay on primary human NK cells (setting [2]) and 1.01 to 2 with primary human NK cells (setting [3]). Besides, the fold induction at 2.5 µM in the assay on primary human NK cells (setting [2]) and with primary human NK cells (setting [3]) was 2.01 to 5 in each case. The fold induction at 3 µM in assay [1] was below 2. For the same compound, the “CD69 MFI AUC” value in the assay on primary human B cells is “D (D indicates ≥1.51)”.

Take `C[C@H](Cc1nncn1C)c1cccc(NC(=O)c2cc(C(=O)N3CC[C@H](O)C3)cc(C(F)(F)F)n2)c1` [Compound 220, 4-((S)-3-hydroxypyrrolidine-1-carbonyl)-N-(3-((R)-1-(4-methyl-4H-1,2,4-triazol-3-yl)propan-2-yl)phenyl)-6-(trifluoromethyl)picolinamide]: the fold induction at 1 µM in the assay on primary human NK cells (setting [6]), in the assay on primary human NK cells (setting [7]), with primary human NK cells (setting [8]), in the assay with primary human NK cells (setting [12]), with primary human NK cells (setting [13]) and in the assay on primary human NK cells (setting [14]) was 1.01 to 2 throughout. In addition, the fold induction at 10 µM with primary human NK cells (setting [9]), in the assay with primary human NK cells (setting [10]), in the assay on primary human NK cells (setting [11]), in the assay with primary human NK cells (setting [15]), in the assay on primary human NK cells (setting [16]) and in the assay with primary human NK cells (setting [17]) was 2.01 to 5 throughout.

`Cn1cnnc1C(F)(F)[C@](C)(F)c1cccc(N2Cc3c(cc(CN4CC[C@H](F)C4)cc3C(F)(F)F)C2=O)c1` [Compound 447, 6-(((S)-3-fluoropyrrolidin-1-yl)methyl)-2-(3-((R)-1,1,2-trifluoro-1-(4-methyl-4H-1,2,4-triazol-3-yl)propan-2-yl)phenyl)-4-(trifluoromethyl)isoindolin-1-one]: the fold induction at 1 µM in the assay on primary human NK cells (setting [6]) is 2.01 to 5; in the assay on primary human NK cells (setting [7]) it was below 1; in the assay on primary human NK cells (setting [8]) it was 2.01 to 5; with primary human NK cells (setting [12]), above 5; in the assay with primary human NK cells (setting [13]) it was 1.01 to 2; with primary human NK cells (setting [14]) it was 2.01 to 5. The fold induction at 10 µM was above 5 in the assay on primary human NK cells (setting [9]); 1.01 to 2 in the assay on primary human NK cells (setting [10]); 2.01 to 5 with primary human NK cells (setting [11]); above 5 in the assay on primary human NK cells (setting [15]); 2.01 to 5 in the assay with primary human NK cells (setting [16]); above 5 in the assay on primary human NK cells (setting [17]).

As to `Cn1cnnc1C(F)(F)[C@](C)(F)c1cccc(N2Cc3c(cc(CN4CCC(F)(F)C4)cc3C(F)(F)F)C2=O)c1` [Compound 448, (R)-6-((3,3-difluoropyrrolidin-1-yl)methyl)-2-(3-(1,1,2-trifluoro-1-(4-methyl-4H-1,2,4-triazol-3-yl)propan-2-yl)phenyl)-4-(trifluoromethyl)isoindolin-1-one], the fold induction at 1 µM in the assay on primary human NK cells (setting [6]), with primary human NK cells (setting [7]), in the assay on primary human NK cells (setting [8]), in the assay on primary human NK cells (setting [12]), in the assay on primary human NK cells (setting [13]) and in the assay on primary human NK cells (setting [14]) was 1.01 to 2 each time. Moreover, the fold induction at 10 µM in the assay with primary human NK cells (setting [9]) was above 5; in the assay on primary human NK cells (setting [10]) it was 2.01 to 5; with primary human NK cells (setting [11]), 2.01 to 5; with primary human NK cells (setting [15]), above 5; in the assay on primary human NK cells (setting [16]), 2.01 to 5; in the assay on primary human NK cells (setting [17]), 2.01 to 5.
